This note sets out measurements from patent US20110224160A1, “Use of Escin for Treatment of Type IV Hypersensitivity Reaction” (MARINOMED BIOTECHNOLOGIE GMBH, priority 2008, published 2011).

The subject of test [1] is oxazolone induced topical inflammation in BALB/c mice. Put plainly: oxazolone induced contact dermatitis model (ear swelling). The class given is in vivo. As to the method:
FIG. 1: Efficacy of escin in an oxazalone induced contact dermatitis model. 3 mg/kg of escin were applied intraperitoneally (ip.) 6 h before challenge, 0.9% saline solution served as a vehicle. […] Bars represent the mean of five animals, SEM is indicated.
Escin was evaluated for anti-inflammatory activity by ip. injection in the oxazolone induced topical inflammation in BALB/c mice, which is a model of type IV hypersensitivity reaction, in particular contact dermatitis. The swelling of the challenged ear in comparison to the unchallenged control was determined as a parameter for induced contact dermatitis.

The test system of test [2] is LPS mediated release of TNF alpha. Put plainly: LPS mediated release of TNF alpha in primary human blood. The class given is cell-based.
Test [3] relates to strong hypersensitivity reactions. Put plainly: strong hypersensitivity reactions in an in vivo model.

For the substance escin, the “inhibition of oxazolone induced ear swelling” value in test [1] (BALB/c mice, escin 3 mg/kg ip., 6 hours after oxazolone application, challenged vs unchallenged ear) is on record as “significant inhibition”. Also, the “induced topical inflammation in a mouse model of contact dermatitis” value in test [1] (mouse model of contact dermatitis) is on record as “reduced induced topical inflammation”. The “LPS mediated release of TNF alpha” value in test [2] is “inhibits dose-dependently”. For the same substance, the “effects of strong hypersensitivity reactions” value in test [3] is given as “reduces the effects of strong hypersensitivity reactions”.
